Like-named read-outs stand apart in the source and are kept apart here.

One data set has as its system gastric secretion. Put plainly: Effects on Gastric Secretion in the Pyloric Ligated Rat (method of Shay et al.). The data set is classed as in vivo. As to conditions: intraduodenal, 100 mg/kg i.d., 3 hours. The text has this:
1. Effects on Gastric Secretion in the Pyloric Ligated Rat
The method as described by Shay et al. (Gastroenterol. 26, 906 (1945)) was used. After overnight starvation the pylorus of a rat was ligated under halothane aenesthesia and the compound under test or vehicle only administered intraduodenally and the rats allowed to recover. They were sacrificed three hours later and the gastric juice removed. After measurement of the volume of secretion, its hydrogen ion concentration, [H^+ ], was determined by titration with 0.5 n NaOH to pH 7. Groups of 4-6 animals were used for each treatment and the inhibitory effect of the compound was ascertained by comparison of the mean values obtained with those from a simultaneously set up control group of animals which received vehicle only. Students `t` test was applied for significance between groups. The mean values for % inhibition obtained for a number of experiments are shown in the following Table 1, the dosage being 100 mg/kg i.d.

Data set [1] concerns indomethacin induced gastric damage. Kind of data set: Anti-ulcer activity: inhibition of indomethacin induced gastric damage in the rat (method of Elegbe). It is filed as in vivo. Particulars: po, 5 h; for inhibition in vivo at 50 mg/kg: 50 mg/kg (footnote *) orally; for inhibition in vivo at 100 mg/kg: read-out: % Inhibition (of gastric damage). How it is done: Rats were starved overnight, given indomethacin subcutaneously (15 mg/kg) and sacrificed 5 hours later. Stomachs were inflated with 0.9% saline, cut along the greater curvature, pinned out and scored for gastric damage by the following system:
Score 1-3 according to the degree of erythema and slight haemorrhage.
Score 4-6 according to the degree of mucosal erosion.
Score 7-9 according to the depth of gastric damage.
Compound or vehicle was administered orally 30 minutes prior to, and at 2 hours after dosing with indomethacin. Mean values per treatment were obtained using the above scoring system and the Mann Witney test applied for significance between such values.

A further data set concerns androgen. Particulars: J. Pharm. Sci. 58, 138-141 (1969); cited from earlier work.
In another data set the test system is acetylcholine. As to conditions: Farmaco. Ed. Sci. 19, 668-702 (1964); cited from earlier work.
Where [2] appears, read: read-out: % Inhibition, Volume (of gastric secretion).
Setting [3] is: read-out: % Inhibition, [H^+ ] (hydrogen ion concentration of gastric juice).
The mark [4] stands for this setting: 30 minutes prior to and 2 hours after indomethacin (15 mg/kg s.c.).
The mark [5] stands for this setting: 100 mg/kg orally, 30 minutes prior to and 2 hours after indomethacin (15 mg/kg s.c.).

Turning to `CN(C)CCON=C(c1ccccc1)c1cccnc1` [Compound 26, phenyl 3-pyridinyl ketone, O-2-N,N-dimethylaminoethyl oxime], in the data set with gastric secretion (setting [2]), the inhibition in vivo at 100 mg/kg amounted to 84%.
On the same count and under the same terms, to `CON=C(c1ccncc1)c1ccc(C(F)(F)F)cc1` [Compound 18, 4-pyridinyl 4-trifluoromethylphenyl ketone, O-methyl oxime] belongs 59%.
Regarding `CON=C(c1ccncc1)c1ccc(Cl)c(Cl)c1` [Compound 10, 3,4-dichlorophenyl 4-pyridinyl ketone, O-methyl oxime], in the data set with gastric secretion (setting [3]), the inhibition in vivo at 100 mg/kg came to 49%.
In data set [1] (setting [4]), `CO/N=C(\c1ccccc1)c1ccccn1` [Compound 2, phenyl 2-pyridinyl ketone, O-methyl oxime] displayed an inhibition in vivo at 50 mg/kg of 79%. In addition, the inhibition in vivo at 100 mg/kg with gastric secretion (setting [2]) amounted to 76%; in the data set on gastric secretion (setting [3]), 33%.
`CON=C(c1ccncc1)c1cccs1` [Compound 14, 4-pyridinyl 2-thienyl ketone, O-methyl oxime]: in data set [1] (setting [5]), the inhibition in vivo at 100 mg/kg was 77%.
`CN(C)CCCON=C(c1ccccn1)c1cccs1` [Compound 30, 2-pyridinyl 2-thienyl ketone, O-3-N,N-dimethylaminopropyl oxime]: the inhibition in vivo at 100 mg/kg in data set [1] (setting [5]) worked out at 77%; in the data set with gastric secretion (setting [2]), 78%; with gastric secretion (setting [3]) it was 64%.
`CN(C)CCCON=C(c1ccccc1)c1ccncc1` [Compound 29, phenyl 4-pyridinyl ketone, O-3-N,N-dimethylaminopropyl oxime]: the inhibition in vivo at 100 mg/kg in data set [1] (setting [5]) was determined as 65%; in the data set with gastric secretion (setting [2]), 72%; with gastric secretion (setting [3]), 45%.
For the molecule `COc1ccc(C(=NOCCN(C)C)c2cccs2)cc1` [4-methoxyphenyl 2-thienyl ketone, O-dimethylaminoethyl oxime], in the data set with androgen, the anti-androgenic activity entry is given as “showed anti-androgenic activity” and the “effective dose relative to toxic dose” value is recorded as “the effective dose was very close to the toxic dose”.
On to `CON=C(Cc1ccccn1)c1ccccc1` [Compound 16, phenyl 2-pyridinylmethyl ketone, O-methyl oxime], for which the inhibition in vivo at 100 mg/kg was determined as 72% in data set [1] (setting [5]), 46% in the data set on gastric secretion (setting [2]) and 25% with gastric secretion (setting [3]).
Turning to `CON=C(c1ccncc1)c1ccc(CO)cc1` [Compound 19, 4-hydroxymethylphenyl 4-pyridinyl ketone, O-methyl oxime], the inhibition in vivo at 100 mg/kg in data set [1] (setting [5]) was found to be 71%; with gastric secretion (setting [2]), 66%; in the data set on gastric secretion (setting [3]), 35%.
With `CN(C)CCCON=C(c1ccccc1)c1ccccn1` [Compound 25, phenyl 2-pyridinyl ketone, O-3-N,N-dimethylaminopropyl oxime], the inhibition in vivo at 100 mg/kg in data set [1] (setting [5]) is 77%; with gastric secretion (setting [2]) it was 91%; in the data set with gastric secretion (setting [3]) it was 65%.
For `CON=C(c1ccsc1)c1ccccn1` [Compound 12, 2-pyridinyl 3-thienyl ketone, O-methyl oxime], in that order: 100%, 78% and 20%.
With `CN(C)CCON=C(Cc1ccccn1)c1ccccc1` [phenyl 2-picolinyl ketone, O-dimethylaminoethyl oxime], the “effective dose relative to toxic dose” value in the data set on androgen is given as “the effective dose was very close to the toxic dose”.
For `N#CCON=C(c1ccccc1)c1ccncc1` [Compound 20, Phenyl 4-pyridinyl ketone, O-cyanomethyl oxime], the inhibition in vivo at 100 mg/kg in data set [1] amounted to 96%.
On to `CO/N=C(\c1ccncc1)c1ccc(F)cc1` [Compound 8, 4-fluorophenyl 4-pyridinyl ketone, O-methyl oxime], for which the inhibition in vivo at 100 mg/kg in data set [1] (setting [5]) is 100%; with gastric secretion (setting [2]) it was 76%; in the data set on gastric secretion (setting [3]) it was 11%.
For `CON=C(c1ccccn1)c1cccs1` [Compound 11, 2-pyridinyl 2-thienyl ketone, O-methyl oxime], in that order: 78%, 84% and 36%.
Regarding `CO/N=C(\c1ccncc1)c1ccc(OC)cc1` [Compound 7, 4-methoxyphenyl 4-pyridinyl ketone, O-methyl oxime], the inhibition in vivo at 100 mg/kg in data set [1] (setting [5]) amounted to 88%.
Regarding `CN(C)CCON=C(c1ccccc1)c1ccncc1` [Compound 28, phenyl 4-pyridinyl ketone, O-2-N,N-dimethylaminoethyl oxime], the inhibition in vivo at 100 mg/kg was 92% in data set [1] (setting [5]), 83% with gastric secretion (setting [2]) and 92% in the data set with gastric secretion (setting [3]).
As for `CON=C(c1ccccn1)c1ccccn1` [Compound 17, di-2-pyridinyl ketone, O-methyl oxime], the inhibition in vivo at 100 mg/kg in data set [1] (setting [5]) came out at 76%; in the data set with gastric secretion (setting [2]), 83%; in the data set with gastric secretion (setting [3]), 14%.
In turn, `CO/N=C(\c1ccccc1)c1cccnc1` [Compound 3, phenyl 3-pyridinyl ketone, O-methyl oxime] yielded an inhibition in vivo at 50 mg/kg in data set [1] (setting [4]) of 82%. In addition, the results for the inhibition in vivo at 100 mg/kg in the data set with gastric secretion (setting [2]) and with gastric secretion (setting [3]) were 87% and 50%, respectively.
For `CN(C)CCCON=C(c1ccccn1)c1ccco1` [Compound 31, 2-furyl 2-pyridinyl ketone, O-3-N,N-dimethylaminopropyl oxime], the inhibition in vivo at 100 mg/kg in data set [1] (setting [5]) amounted to 92%; with gastric secretion (setting [2]), 70%; with gastric secretion (setting [3]), 30%.
For `CO/N=C(/c1ccccc1)c1cc[n+]([O-])cc1` [Compound 32, Phenyl 4-pyridinyl ketone, O-methyl oxime, N-oxide (Z-isomer)], in that order: 64%, 84% and 32%.
Molecule `CON=C(c1ccccc1)c1ccncc1` [Compound 1, Phenyl 4-pyridinyl ketone, O-methyl oxime] gave an inhibition in vivo at 50 mg/kg in data set [1] (setting [4]) of 86%. Further, the inhibition in vivo at 100 mg/kg in the data set on gastric secretion (setting [2]) came out at 82%; with gastric secretion (setting [3]) it was 41%.
In the case of `CN(C)CCCON=C(c1ccccc1)c1cccnc1` [Compound 27, phenyl 3-pyridinyl ketone, O-3-N,N-dimethylaminopropyl oxime], the inhibition in vivo at 100 mg/kg with gastric secretion (setting [2]) is 85%.
For the molecule `CO/N=C(\c1ccccc1)c1ccncc1` [Compound 4, phenyl 4-pyridinyl ketone, O-methyl oxime], the inhibition in vivo at 100 mg/kg was determined as 77% in data set [1] (setting [5]), 82% with gastric secretion (setting [2]) and 50% in the data set with gastric secretion (setting [3]).
Regarding `C[N+](C)(C)CCON=C(c1ccccc1)c1ccccn1.[I-]` [phenyl 2-pyridinyl ketone, O-dimethylaminoethyl oxime methiodide], the acetylcholine antagonistic activity entry in the data set on acetylcholine is recorded as “showed acetylcholine antagonistic activity”.
On to `C=CCON=C(c1ccccc1)c1ccncc1` [Compound 22, phenyl 4-pyridinyl ketone, O-allyl oxime], for which the inhibition in vivo at 100 mg/kg in data set [1] (setting [5]) was 79%; in the data set with gastric secretion (setting [2]), 76%.
Consider `CON=C(c1ccncc1)c1ccc(C)cc1` [Compound 6, 4-methylphenyl 4-pyridinyl ketone, O-methyl oxime], for which the inhibition in vivo at 100 mg/kg in data set [1] (setting [5]) worked out at 80%; with gastric secretion (setting [2]), 81%; with gastric secretion (setting [3]), 89%.
Consider `CO/N=C(\c1ccncc1)c1ccc(Cl)cc1` [Compound 9, 4-chlorophenyl 4-pyridinyl ketone, O-methyl oxime], for which, in data set [1] (setting [5]), the inhibition in vivo at 100 mg/kg stood at 80%.
The molecule `CCON=C(c1ccccc1)c1ccncc1` [Compound 21, phenyl 4-pyridinyl ketone, O-ethyl oxime] returned an inhibition in vivo at 50 mg/kg in data set [1] (setting [4]) of 100%. Moreover, the inhibition in vivo at 100 mg/kg came to 77% in the data set with gastric secretion (setting [2]) and 24% in the data set with gastric secretion (setting [3]).
Regarding `CN(C)CCON=C(c1ccccc1)c1ccccn1` [Compound 24, phenyl 2-pyridinyl ketone, O-2-N,N-dimethylaminoethyl oxime], the inhibition in vivo at 100 mg/kg in data set [1] (setting [5]) was found to be 100%; in the data set with gastric secretion (setting [2]), 81%; in the data set on gastric secretion (setting [3]) it was 36%.
Regarding `C#CCON=C(c1ccccc1)c1ccncc1` [Compound 23, phenyl 4-pyridinyl ketone, O-propargyl oxime], the inhibition in vivo at 100 mg/kg in the data set on gastric secretion (setting [2]) worked out at 81%.

The record behind these values is patent US4297359A, “Anti-ulcer compositions containing certain pyridyl oxime ethers” (ACF Chemiefarma NV, priority 1978, dated 1981).
